Values joined by “and” are separate entries in the source; they are usually repeats but may differ in a detail not shown here. Equal entries are not always repeated.
Tested on: CMV
Assay: Study HDP-CDV-201: prevention or control of CMV infection in R+ HSCT recipients (efficacy)
Assay type: in vivo, human (adult allogeneic HSCT recipients)
Settings: for Difference (HDP-CDV minus placebo) in rate of CMV DNAemia ≧1,000 copies/mL / Rate of CMV DNAemia ≧1,000 copies/mL during the treatment period: CMV modified strata: positive; for Discontinuation: Emergence of CMV disease / Discontinuation: Initiation of alternate CMV therapy: active treatment period
Experimental: The clinical study of the current invention (HDP-CDV-201) was a 9-11 week randomized, placebo-controlled, double-blind, dose-escalation study (40 mg weekly [QW], 100 mg QW, 200 mg QW, 200 mg twice-weekly [BIW], and 100 mg BIW) of HDP-CDV for the prevention of CMV infection post-HCT. Treatment was initiated at the time of engraftment and continued until Week 13 post-HCT. HDP-CDV, at various doses, was active and well tolerated in the prevention CMV infection or disease.
Clinical Studies of HDP-CDV were performed and described in detail in the following Examples. For example, HDP-CDV-201 is a placebo-controlled, dose-escalating trial in HSCT CMV (R+) recipients, evaluating the ability of HDP-CDV to prevent or control CMV infection was carried out. Five cohorts were established in which participants or subjects received either placebo or the HDP-CDV orally, in doses ranging from 40 mg weekly (QW) to 200 mg twice weekly (BIW). Subjects who were post-HSCT were enrolled at the time of engraftment and randomized to HDP-CDV or placebo (3 to 1 ratio) and received blinded therapy until approximately 100 day post-transplantation. HDP-CDV doses were 40 mg QW, 100 mg QW, 200 mg QW, 200 mg BIW and 100 mg BIW. Escalation to the next dose was decided by the data monitoring committee after review of the safety data from the previous Cohort. Subjects who developed CMV disease or CMV infection requiring pre-emptive therapy with local standard of care were discontinued from blinded therapy and followed for 4 weeks. Subjects who completed treatment with blinded therapy were followed for 8 weeks post-therapy.
The primary endpoint was defined as the incidence of CMV disease at any time during treatment or CMV DNAemia≧200 copies/mL at the end of treatment. All subjects who received at least one dose of drug/placebo and had at least one efficacy evaluation post baseline were included in the primary analysis, regardless of their CMV DNAemia status (negative or positive) at baseline (mITT population). Results for the pooled HDP-CDV Cohorts and for each Cohort separately were analyzed versus that for pooled placebo.
The primary efficacy measure for this study was treatment failure, defined as the occurrence of CMV infection, defined as CMV DNAemia>200 copies/mL at the End of Treatment or diagnosis of CMV disease at any time during the treatment period. For the analysis, the following definitions apply:
For subjects who completed the treatment phase of the study, the End of Treatment was defined as the latest assessment from date of the last dose of study drug and up to 7 days for QW dosing, or the date of the last dose of study drug and up to 4 days for BIW dosing. For subjects who discontinued during the treatment phase of the study, the End of Treatment was defined as the date of the last dose of study drug.
The time to event was defined as the period between FDD and date of first occurrence of the event of interest (inclusive). The events included onset of CMV DNAemia, onset of CMV disease, and discontinuation because of excluded anti-CMV medications. Time to event/onset was derived as (the event/onset date—FDD)+1.
As detailed in the Statistical Analysis Plan, a modified CMV stratum was defined prior to conducting the statistical analysis based upon polymerase chain reaction (PCR) results from the central laboratory. If any positive CMV DNA value in plasma was collected before the first dose of study drug (including Screening, Pre-dose, (combined Screening/Pre-dose), CMV for stratification, and FDD), then the subject was placed into the modified CMV positive (≧100 copies/mL) stratum, otherwise the subject was in the modified CMV negative stratum. […]

[1] = 40 mg QW, CMV modified strata: negative
[2] = 40 mg QW, modified CMV negative stratum
[3] = 40 mg QW, treatment period, CMV DNA negative at baseline
[4] = 40 mg QW, whole study period, CMV DNA negative at baseline
[5] = 100 mg BIW, CMV modified strata: negative

SMILES: CCCCCCCCCCCCCCCCOCCCOP(=O)(O)COC(CO)Cn1ccc(N)nc1=O (stereo not drawn) [HDP-CDV]
- anti-CMV activity (in words) (40 mg QW): inactive
- Difference (HDP-CDV minus placebo) in infection rate [1]: 9.1%
- Difference (HDP-CDV minus placebo) in rate of CMV DNAemia ≧1,000 copies/ml [1]: −9.7%
- Rate of CMV DNAemia ≧1,000 copies/ml during the treatment period [1]: 22.2%
- Rate of CMV Disease or End of Treatment CMV Infection [1]: 38.9%
- Difference (HDP-CDV minus placebo) in rate of CMV DNAemia ≧1,000 copies/mL (40 mg QW): 2.4%
- Rate of CMV DNAemia ≧1,000 copies/mL during the treatment period (40 mg QW): 85.7%
- Rate of CMV Disease or End of Treatment CMV Infection (40 mg QW, aGVHD randomization strata: negative): 52.2%
- Difference (HDP-CDV minus placebo) in infection rate (40 mg QW, aGVHD strata: negative): 20.1%
- Discontinuation: Emergence of CMV disease (40 mg QW): 3 Subject n (%) and 3 (12.0%) Subject n (%)
- Discontinuation: Initiation of alternate CMV therapy (40 mg QW): 8 (32.0%) Subject n (%)
- Difference (HDP-CDV minus placebo) in rate of CMV DNAemia ≧1000 copies/mL (40 mg QW, mITT): −2.4%
- Difference (HDP-CDV minus placebo) in rate of CMV disease or end of treatment CMV infection (40 mg QW, mITT): 14.7%
- Subjects Receiving Antiviral Therapy and/or had CMV disease (40 mg QW, mITT): 11 (44.0%) subjects (%)
- Subjects without a CMV event (40 mg QW, mITT): 14 (56.0%) subjects (%)
- Time to Antiviral Therapy, Median (40 mg QW, mITT): 29.0 days
- Rate of CMV Disease or End of Treatment CMV Infection (≧200 copies/ml) (40 mg QW, mITT, missing=infection): 52%
- Rate of CMV DNAemia ≧1000 copies/mL during the treatment period (40 mg QW, mITT, post hoc): 40.0%
- Time to Antiviral Therapy, Mean (40 mg QW, mITT, censored values not included): 27.1 days
- Subjects Who Had CMV-related Event (CMV disease, CMV DNAemia ≧1,000 c/mL or initiation of anti-CMV treatment) [2]: 5 (27.8%) subjects (%)
- Subjects without a CMV-related event [2]: 13 (72.2%) subjects (%)
- Developed CMV DNAemia (≧100 copies/mL) during the treatment period (40 mg QW, plasma CMV DNA negative at baseline, mITT): 10 (52.6%) N(%)
- Median Survival Time to CMV DNAemia (Kaplan-Meier) [3]: 51.0 days
- Time to CMV DNAemia (≧100 copies/mL), Median [3]: 14.5 days
- Time to CMV DNAemia (≧100 copies/mL), Mean (40 mg QW, treatment period, CMV DNA negative at baseline, censored values not included): 17.8 days
- Median Survival Time to CMV DNAemia (Kaplan-Meier) (40 mg QW, whole study period): 51.0 days
- Number of Subjects who had CMV DNAemia (≧100 copies/mL) by the end of study [4]: 11
- Time to CMV DNAemia (≧100 copies/mL), Mean [4]: 24.5 days
- Time to CMV DNAemia (≧100 copies/mL), Median [4]: 15.0 days
- % CMV Event Rate, primary: CMV DNAemia >200 copies/mL at end of treatment OR CMV disease during treatment (100 mg BIW (N = 41), CMV modified strata: negative): 2 (4.9%) subjects (%)
- % CMV Event Rate, primary: CMV DNAemia >200 copies/mL at end of treatment OR CMV disease during treatment (100 mg BIW (N = 46), aGVHD strata: negative): 4 (8.7%) subjects (%)
- % CMV Event Rate, primary: CMV DNAemia >200 copies/mL at end of treatment OR CMV disease during treatment (100 mg BIW (N = 50), mITT): 5 (10.0)%
- CMV events (disease at any time or >200 copies at end of treatment) (100 mg BIW, CMV modified positive stratum (3 of 9)): 33%
- Difference (HDP-CDV minus placebo) in infection rate [5]: −24.9%
- Difference (HDP-CDV minus placebo) in rate of CMV DNAemia ≧1,000 copies/ml [5]: −31.9%
- Rate of CMV DNAemia ≧1,000 copies/ml during the treatment period [5]: 0%
- Rate of CMV Disease or End of Treatment CMV Infection [5]: 4.9% and 5%
- Difference (HDP-CDV minus placebo) in rate of CMV DNAemia ≧1,000 copies/mL (100 mg BIW): −38.9%
- Rate of CMV DNAemia ≧1,000 copies/mL during the treatment period (100 mg BIW): 44.4%
- Rate of CMV Disease or End of Treatment CMV Infection (100 mg BIW, aGVHD randomization strata: negative): 9% and 8.7%
- Difference (HDP-CDV minus placebo) in infection rate (100 mg BIW, aGVHD strata: negative): −23.4%
- Discontinuation: Emergence of CMV disease (100 mg BIW): 1 Subject n (%) and 1 (2.0%) Subject n (%)
- Discontinuation: Initiation of alternate CMV therapy (100 mg BIW): 6 (12.0%) Subject n (%)
- Difference (HDP-CDV minus placebo) in rate of CMV DNAemia ≧1000 copies/mL (100 mg BIW, mITT): −34.4%
- Difference (HDP-CDV minus placebo) in rate of CMV disease or end of treatment CMV infection (100 mg BIW, mITT): −27.3%
